# In the supplement of paper PMC10307832:
# Tests used:
# Test in all cases: relative viability (nuclei count vs DMSO), 5 days (fraction); higher = more cells survive
# NCI-H1915 = system: NCI-H1915
# Outline: (§1)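 Cells from lung cancer lines were seeded into 1536-well plates and, one day later, dosed by pin tool. Treatments were either a single drug or a fixed dose of an anchor drug with five library-drug doses (not always all listed) in √10 steps. After 5 days, nuclei were stained in a one-step fixation (final 0.05% Triton X-100, 1% formaldehyde, 1 ug/ml Hoechst) and counted on 4× images, and relative viability is the treated-to-vehicle nuclei ratio, as the median of duplicate plates.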
# NCI-H23 = system: NCI-H23
# Outline: as §1
# PC-3 [JPC-3] = system: PC-3 [JPC-3]
# Outline: as §1
# LCLC-97TM1 = system: LCLC-97TM1
# Outline: as §1
# LU99A = system: LU99A
# Outline: as §1
# SK-LU-1 = system: SK-LU-1
# Outline: as §1
# A-427 = system: A-427
# Outline: as §1
# HARA = system: HARA
# Outline: as §1
# NCI-H460 = system: NCI-H460
# Outline: as §1
# NCI-H650 = system: NCI-H650
# Outline: as §1
# BEN = system: BEN
# Outline: as §1
# NCI-H441 = system: NCI-H441
# Outline: as §1
# NCI-H2023 = system: NCI-H2023
# Outline: as §1
# NCI-H1666 = system: NCI-H1666
# Outline: as §1
# LXF-289 = system: LXF-289
# Outline: as §1
# NCI-H322M = system: NCI-H322M
# Outline: as §1
# NCI-H2126 = system: NCI-H2126
# Outline: as §1
# NCI-H1563 = system: NCI-H1563
# Outline: as §1
# LOU-NH91 = system: LOU-NH91
# Outline: as §1
# NCI-H1755 = system: NCI-H1755
# Outline: as §1
# NCI-H1793 = system: NCI-H1793
# Outline: as §1
# NCI-H2170 = system: NCI-H2170
# Outline: as §1
# NCI-H1944 = system: NCI-H1944
# Outline: as §1
# NCI-H1395 = system: NCI-H1395
# Outline: as §1
smiles,measurement,setting,value
CCCCCCCCCCCC1=C(O)C(=O)C=C(O)C1=O [Embelin] + CC(C)C[C@H](NC(=O)[C@H](Cc1ccccc1)NC(=O)c1cnccn1)B(O)O [Bortezomib] (partner 0.002 µM),relative viability,NCI-H1915; first compound 0.08 µM,0.951
same,relative viability,NCI-H1915; first compound 0.8 µM,1.02
same,relative viability,NCI-H1915; first compound 2.53 µM,1.13
same,relative viability,NCI-H1915; first compound 8 µM,0.998
same,relative viability,NCI-H23; first compound 0.08 µM,0.971
same,relative viability,NCI-H23; first compound 0.8 µM,1.06
same,relative viability,NCI-H23; first compound 2.53 µM,1.19
same,relative viability,NCI-H23; first compound 8 µM,1.23
same,relative viability,PC-3 [JPC-3]; first compound 0.08 µM,0.831
same,relative viability,PC-3 [JPC-3]; first compound 0.8 µM,0.908
same,relative viability,PC-3 [JPC-3]; first compound 2.53 µM,0.927
same,relative viability,PC-3 [JPC-3]; first compound 8 µM,0.806
same,relative viability,LCLC-97TM1; first compound 0.08 µM,0.812
same,relative viability,LCLC-97TM1; first compound 0.8 µM,0.774
same,relative viability,LCLC-97TM1; first compound 2.53 µM,0.29
same,relative viability,LCLC-97TM1; first compound 8 µM,0.907
same,relative viability,LU99A; first compound 0.08 µM,1.37
same,relative viability,LU99A; first compound 0.8 µM,1.23
same,relative viability,LU99A; first compound 2.53 µM,1.1
same,relative viability,LU99A; first compound 8 µM,1.07
same,relative viability,SK-LU-1; first compound 0.08 µM,1.23
same,relative viability,SK-LU-1; first compound 0.8 µM,1.95
same,relative viability,SK-LU-1; first compound 2.53 µM,0.982
same,relative viability,SK-LU-1; first compound 8 µM,0.929
same,relative viability,A-427; first compound 0.08 µM,1.05
same,relative viability,A-427; first compound 0.8 µM,1.11
same,relative viability,A-427; first compound 2.53 µM,0.978
same,relative viability,A-427; first compound 8 µM,0.904
same,relative viability,HARA; first compound 0.08 µM,1.05
same,relative viability,HARA; first compound 0.8 µM,1.25
same,relative viability,HARA; first compound 2.53 µM,1.13
same,relative viability,HARA; first compound 8 µM,1.26
same,relative viability,NCI-H460; first compound 0.08 µM,0.961
same,relative viability,NCI-H460; first compound 0.8 µM,1.27
same,relative viability,NCI-H460; first compound 2.53 µM,1.38
same,relative viability,NCI-H460; first compound 8 µM,1.19
same,relative viability,NCI-H650; first compound 0.08 µM,0.64
same,relative viability,NCI-H650; first compound 0.8 µM,1
same,relative viability,NCI-H650; first compound 2.53 µM,0.668
same,relative viability,NCI-H650; first compound 8 µM,0.453
same,relative viability,BEN; first compound 0.08 µM,0.85
same,relative viability,BEN; first compound 0.8 µM,1.04
same,relative viability,BEN; first compound 2.53 µM,0.941
same,relative viability,BEN; first compound 8 µM,0.899
same,relative viability,NCI-H441; first compound 0.08 µM,0.448
same,relative viability,NCI-H441; first compound 2.53 µM,0.251
same,relative viability,NCI-H441; first compound 8 µM,0.475
same,relative viability,NCI-H2023; first compound 0.08 µM,0.915
same,relative viability,NCI-H2023; first compound 0.8 µM,1.12
same,relative viability,NCI-H2023; first compound 2.53 µM,1.07
same,relative viability,NCI-H2023; first compound 8 µM,0.578
same,relative viability,NCI-H1666; first compound 0.08 µM,0.655
same,relative viability,NCI-H1666; first compound 0.8 µM,1.05
same,relative viability,NCI-H1666; first compound 2.53 µM,0.922
same,relative viability,NCI-H1666; first compound 8 µM,0.829
same,relative viability,LXF-289; first compound 0.08 µM,1.01
same,relative viability,LXF-289; first compound 0.8 µM,1
same,relative viability,LXF-289; first compound 2.53 µM,1
same,relative viability,LXF-289; first compound 8 µM,1.05
same,relative viability,NCI-H322M; first compound 0.08 µM,1.21
same,relative viability,NCI-H322M; first compound 0.8 µM,1.34
same,relative viability,NCI-H322M; first compound 2.53 µM,1.44
same,relative viability,NCI-H322M; first compound 8 µM,1.29
same,relative viability,NCI-H2126; first compound 0.08 µM,1.14
same,relative viability,NCI-H2126; first compound 0.8 µM,1.11
same,relative viability,NCI-H2126; first compound 2.53 µM,1.08
same,relative viability,NCI-H2126; first compound 8 µM,1.19
same,relative viability,NCI-H1563; first compound 0.08 µM,1.06
same,relative viability,NCI-H1563; first compound 0.8 µM,0.953
same,relative viability,NCI-H1563; first compound 2.53 µM,0.787
same,relative viability,NCI-H1563; first compound 8 µM,0.753
same,relative viability,LOU-NH91; first compound 0.08 µM,0.554
same,relative viability,LOU-NH91; first compound 0.8 µM,0.578
same,relative viability,LOU-NH91; first compound 2.53 µM,0.504
same,relative viability,LOU-NH91; first compound 8 µM,0.509
same,relative viability,NCI-H1755; first compound 0.08 µM,0.987
same,relative viability,NCI-H1755; first compound 0.8 µM,1.07
same,relative viability,NCI-H1755; first compound 2.53 µM,0.971
same,relative viability,NCI-H1755; first compound 8 µM,0.917
CCCCCCCCCCCC1=C(O)C(=O)C=C(O)C1=O [Embelin] + CS(=O)(=O)CCNCc1ccc(-c2ccc3ncnc(Nc4ccc(OCc5cccc(F)c5)c(Cl)c4)c3c2)o1 [Lapatinib] (partner 2 µM),relative viability,NCI-H1915; first compound 0.08 µM,0.96
same,relative viability,NCI-H1915; first compound 0.8 µM,0.984
same,relative viability,NCI-H1915; first compound 2.53 µM,1.08
same,relative viability,NCI-H1915; first compound 8 µM,0.956
same,relative viability,NCI-H23; first compound 0.08 µM,1.17
same,relative viability,NCI-H23; first compound 0.8 µM,1.2
same,relative viability,NCI-H23; first compound 2.53 µM,1.36
same,relative viability,NCI-H23; first compound 8 µM,1.07
same,relative viability,PC-3 [JPC-3]; first compound 0.08 µM,0.428
same,relative viability,PC-3 [JPC-3]; first compound 0.8 µM,0.473
same,relative viability,PC-3 [JPC-3]; first compound 2.53 µM,0.477
same,relative viability,PC-3 [JPC-3]; first compound 8 µM,0.406
same,relative viability,NCI-H1793; first compound 0.08 µM,0.68
same,relative viability,NCI-H1793; first compound 0.8 µM,0.833
same,relative viability,NCI-H1793; first compound 2.53 µM,0.801
same,relative viability,NCI-H1793; first compound 8 µM,0.686
same,relative viability,LCLC-97TM1; first compound 0.8 µM,1.48
same,relative viability,LCLC-97TM1; first compound 2.53 µM,0.823
same,relative viability,LCLC-97TM1; first compound 8 µM,0.86
same,relative viability,LU99A; first compound 0.08 µM,0.999
same,relative viability,LU99A; first compound 0.8 µM,0.991
same,relative viability,LU99A; first compound 2.53 µM,1.12
same,relative viability,LU99A; first compound 8 µM,0.855
same,relative viability,SK-LU-1; first compound 0.08 µM,1
same,relative viability,SK-LU-1; first compound 0.8 µM,1.15
same,relative viability,SK-LU-1; first compound 2.53 µM,0.9
same,relative viability,SK-LU-1; first compound 8 µM,0.863
same,relative viability,A-427; first compound 0.08 µM,1.07
same,relative viability,A-427; first compound 0.8 µM,1.05
same,relative viability,A-427; first compound 2.53 µM,1.2
same,relative viability,A-427; first compound 8 µM,0.947
same,relative viability,HARA; first compound 0.08 µM,0.665
same,relative viability,HARA; first compound 0.8 µM,0.961
same,relative viability,HARA; first compound 2.53 µM,0.895
same,relative viability,HARA; first compound 8 µM,0.755
same,relative viability,NCI-H460; first compound 0.08 µM,1.04
same,relative viability,NCI-H460; first compound 0.8 µM,1.1
same,relative viability,NCI-H460; first compound 8 µM,1.1
same,relative viability,NCI-H650; first compound 0.08 µM,0.677
same,relative viability,NCI-H650; first compound 0.8 µM,1.47
same,relative viability,NCI-H650; first compound 2.53 µM,0.831
same,relative viability,NCI-H650; first compound 8 µM,0.658
same,relative viability,BEN; first compound 0.08 µM,0.697
same,relative viability,BEN; first compound 0.8 µM,0.887
same,relative viability,BEN; first compound 2.53 µM,0.805
same,relative viability,BEN; first compound 8 µM,0.73
same,relative viability,NCI-H2023; first compound 0.08 µM,0.837
same,relative viability,NCI-H2023; first compound 0.8 µM,0.979
same,relative viability,NCI-H2023; first compound 2.53 µM,0.838
same,relative viability,NCI-H2023; first compound 8 µM,0.477
same,relative viability,NCI-H2170; first compound 0.08 µM,0.276
same,relative viability,NCI-H2170; first compound 0.8 µM,0.282
same,relative viability,NCI-H2170; first compound 2.53 µM,0.275
same,relative viability,NCI-H2170; first compound 8 µM,0.253
same,relative viability,NCI-H1666; first compound 0.08 µM,0.603
same,relative viability,NCI-H1666; first compound 0.8 µM,0.795
same,relative viability,NCI-H1666; first compound 2.53 µM,0.761
same,relative viability,NCI-H1666; first compound 8 µM,0.616
same,relative viability,LXF-289; first compound 0.08 µM,0.961
same,relative viability,LXF-289; first compound 0.8 µM,0.882
same,relative viability,LXF-289; first compound 2.53 µM,0.978
same,relative viability,LXF-289; first compound 8 µM,0.936
same,relative viability,NCI-H1944; first compound 0.08 µM,0.774
same,relative viability,NCI-H1944; first compound 0.8 µM,0.908
same,relative viability,NCI-H1944; first compound 2.53 µM,0.841
same,relative viability,NCI-H1944; first compound 8 µM,0.65
same,relative viability,NCI-H322M; first compound 0.08 µM,0.548
same,relative viability,NCI-H322M; first compound 0.8 µM,0.614
same,relative viability,NCI-H322M; first compound 2.53 µM,0.726
same,relative viability,NCI-H322M; first compound 8 µM,0.561
same,relative viability,NCI-H1395; first compound 0.08 µM,1.11
same,relative viability,NCI-H1395; first compound 0.8 µM,1.27
same,relative viability,NCI-H1395; first compound 2.53 µM,0.99
same,relative viability,NCI-H1395; first compound 8 µM,0.754
same,relative viability,NCI-H2126; first compound 0.08 µM,0.742
same,relative viability,NCI-H2126; first compound 0.8 µM,0.791
same,relative viability,NCI-H2126; first compound 2.53 µM,0.83
same,relative viability,NCI-H2126; first compound 8 µM,0.643
same,relative viability,NCI-H1563; first compound 0.08 µM,0.869
same,relative viability,NCI-H1563; first compound 0.8 µM,1.11
same,relative viability,NCI-H1563; first compound 2.53 µM,0.838
same,relative viability,NCI-H1563; first compound 8 µM,0.839
same,relative viability,LOU-NH91; first compound 0.08 µM,0.823
same,relative viability,LOU-NH91; first compound 0.8 µM,0.99
same,relative viability,LOU-NH91; first compound 2.53 µM,0.866
same,relative viability,LOU-NH91; first compound 8 µM,0.63
same,relative viability,NCI-H1755; first compound 0.08 µM,1.03
same,relative viability,NCI-H1755; first compound 0.8 µM,1.04
same,relative viability,NCI-H1755; first compound 2.53 µM,1.06
same,relative viability,NCI-H1755; first compound 8 µM,0.97
